Converted amounts (≈) assume the structure as drawn. Like-named read-outs stand apart in the source and are kept apart here. Marks after values point to notes of the source that are not given here. Where no end group is shown, it is not given here.
Legend:
[1] = test system: S. mutans Ingbritt
Source text: (§1) The bacterial strains; Fusobacterium nucleatum ATCC 25586, Streptococcus mutans Ingbritt, Staphylococcus aureus (MSSA) ATCC 29213; Staphylococcus aureus (MRSA) ATCC 43300; Enterococcus faecalis ATCC 29212; Enterobacter aerogenes ATCC 13048; Pseudomonas aeruginosa strain PAO1-LAC, ATCC 47085; Klebsiella pneumoniae ATCC 13883; Acinetobacter baumannii strain 2208, ATCC 19606; Escherichia coli ATCC 25922 lyophilised or glycerol stocks were obtained from the culture collection of the Oral Health Cooperative Research Centre, The Melbourne Dental School, University of Melbourne, Australia. These strains were selected for this study as they are widely used in antimicrobial studies and are considered to be important pathogens and major targets for antibiotic resistant studies. Bacteria were grown aerobically and maintained by passage at ambient temperature (E. coli, K. pneumoniae, A. baumannii and S. aureus strains) or at 37°C (P. aeruginosa, E. faecalis and E. aerogenes) on horse blood agar (10% v/v defibrinated horse blood, 4.4% w/v Oxoid Blood Agar Base No. 2). S. mutans and F. nucleatum were grown anaerobically (MK3 anaerobic workstation, Don Whitley Scientific Limited, England) and maintained by passage at 37°C on Todd Hewitt agar (3.6% w/v Oxoid Todd-Hewitt Broth, 1.5% w/v sucrose, 1.5% w/v BactoTM Agar, 0.8% w/v Oxoid Yeast Extract) or horse blood agar, respectively. For the antimicrobial peptide assays a 20 mL starter culture was produced by taking single colonies from blood or Todd Hewitt agar plates, respectively, to inoculate either: Luria Broth (LB; 1% w/v BactoTM Tryptone, 1% w/v NaCl, 0.5% w/v Oxoid Yeast Extract, pH 7.5, Thermo Scientific Pty, Ltd, Sydney, Australia) for bacteria; E. coli, K. pneumoniae, P. aeruginosa, A. baumannii, E. faecalis, E. aerogenes and S. aureus which were grown aerobically at 37°C, or Todd Hewitt broth (3.6% w/v Oxoid Todd-Hewitt Broth, 1.5% w/v sucrose, 0.8% w/v Oxoid Yeast 9 Extract) for S. mutans, or Brain Heart Infusion broth (BHI; 3.7% w/v Oxoid BHI, 0.05% w/v L-cysteine) for F. nucleatum which were both grown anaerobically at 37°C. After overnight incubation, 0.5–2.0 mL of the starter culture was used to inoculate the appropriate fresh broth (200 mL) and growth monitored at 650 nm using a spectrophotometer (model 275E; Perkin-Elmer, Sydney, Australia) with culture purity checked by microscopic examination and culture. Bacteria were harvested during late exponential growth phase and viability and bacteria/mL determined using a BacLight viability kit (Invitrogen, Sydney, Australia) and a Quanta SC-MPL flow cytometer (Beckman coulter Pty, Ltd, Sydney, Australia).
(§2) Antibacterial assays were undertaken to determinate the minimum inhibitory concentration (MIC), minimum bactericidal concentration (MBC) and minimum membrane disruptive concentration (MDC) of each of the antimicrobial peptides (AMP) and AMP analogues (S1 Table). For each bacterim a stock solution (2.5 × 10^6 cells/mL) in the respective media was made and an aliquot incubated with AMPs within 15 minutes from viable cell count and stock preparation. All AMPs were dissolved in DMSO and a 500 μM stock solution prepared by adding the respective media and serial dilutions (250–0.244 μM) of the AMP in media (100 μL/well) made just prior addition of bacteria. […] One hundred microliter aliquots of the bacterial stock solution (2.5 × 10^5 cells/well) were added to the AMP serial dilutions and incubated at 37°C for 90 min. Assay preparation and incubations were conducted in aerobic or anaerobic conditions dependent on the bacteria. Bacteria were also incubated in the absence of AMP to serve as a growth control for the assay. After the 90 minute incubation period the antimicrobial activity (MIC, MBC and MDC) was determined as follows;
(§3) For determination of MBC, the CLSI protocol was followed, with the modifications being that due to the rapid action of the AMPs the assay incubation time was shortened from 16–20 hours to 90 minutes.

[2] = test system: F. nucleatum ATCC 25586
Source text: as §1, §2, §3

[3] = test system: S. mutans Ingbritt; remark: listed apart in the source
Source text: as §1, §2
(§4) For MIC the CLSI broth microdilution assay was followed as we have previously described.

[4] = test system: F. nucleatum ATCC 25586; remark: listed apart in the source
Source text: as §1, §2, §4

[5] = test system: sheep red blood cells; experiment: Hemolysis assay; assay type: cell-based
Description: Fresh sheep red blood cells in Alsever’s solution (RBCs, Equicell, Victoria, Australia) were diluted 1 in 20 in PBS (pH 7.4), pelleted by centrifugation, and washed three times in PBS (1000 g, 10 min). The RBCs were counted using a cell counter (Coulter Particle Counter Z series, Beckman Coulter) and diluted to a final concentration of 2 × 10^7 cells/mL. […] Following incubation, the RBCs were pelleted centrifuged (1000 g, 10 min) and the amount of haemoglobin in 100 μL aliquots determined by measuring the absorbance at 405 nm using a microplate reader (PerkinElmer 1420 Multilabel Counter VICTOR3). Positive and negative controls for hemolysis were taken as RBC lysed with 0.5% Triton X-100 (1:1 v/v) and RBC suspension in PBS, respectively. The percentage of hemolysis was calculated using the following formula: % Hemolysis = [(A405 test sample—A405 negative control) / (A405 positive control—A405 negative control)] × 100
The percentage hemolysis was plotted against peptide concentration and linear regression analysis was used to determine the hemolytic concentration needed to lyse 50% (HC50) of RBCs.

[6] = test system: HEK-293 (ATCC CRL-1573) cells; experiment: Inhibition of cell proliferation assay (MTS); assay type: cell-based
Description: After 28 h, 20 μL of 3-(4,5-dimethylthiazol-2-yl)-5-(3-carboxymethoxyphenyl)-2-(4-sulfophenyl)-2H-tetrazolium (MTS) solution (CellTiter 96 AQueous Non-Radioactive Cell Proliferation Assay kit, Promega) were added to each well and the plates were incubated for a further 1–2 h at 37°C, 5% CO2 incubator. Cell proliferation was determined by measuring absorbance at 490 nm using a microplate reader (PerkinElmer 1420 Multilabel Counter VICTOR3). Positive and negative controls for inhibition were taken as HEK-293 cells incubated with mytomycin C (5 μg/mL, Sigma Pty Ltd) and HEK-293 cells incubated in media alone, respectively. The percentage of inhibition was calculated using the following formula: % Inhibition = [(A490 test sample—A490 negative control) / (A490 positive control—A490 negative control)] × 100
The percentage of inhibition was plotted against peptide concentration and linear regression analysis was used to determine the AMP concentration needed to inhibit 50% (IC50) of the HEK-293 cells.

Row | Molecule | MBC ([1]; S. mutans Ingbritt, 90 min peptide/bacteria incubation, CFU on agar, ≥ 99.9% reduction, average of 3 assays ± SD) | MBC ([2]; F. nucleatum ATCC 25586, 90 min peptide/bacteria incubation, CFU on agar, ≥ 99.9% reduction, average of 3 assays ± SD) | MIC ([3]; S. mutans Ingbritt, 90 min peptide/bacteria incubation at 37°C, then growth at OD650, average of 3 assays ± SD) | MIC ([4]; F. nucleatum ATCC 25586, 2.5 × 10^5 cells/well, 90 min peptide/bacteria incubation at 37°C, then growth at OD650, average of 3 assays ± SD) | average MIC/MBC value ([4]; F. nucleatum, average of MIC and MBC) | Therapeutic Index (hemolysis) ([5]; HC50/MDC50 (F. nucleatum), given as x : 1) | Hemolysis (HC50) ([5]; pH 7.4) | MBC ([1]; Ingbritt) | MBC ([2]; ATCC 25586) | IC50 ([6]; HEK-293 cells 5×10^3, EMEM + 10% FBS, 28 h, MTS, A490, linear regression, maximum peptide concentration = 1000 µM) | Therapeutic Index (proliferation) ([6]; IC50/MDC50 (F. nucleatum), given as x : 1) | MIC ([3]; Ingbritt, 24 h) | MIC ([4]; ATCC 25586, 24 h)
1 | CC[C@H](C)[C@H](NC(=O)CN)C(=O)NCC(=O)N[C@@H](C)C(=O)N[C@H](C(=O)N[C@@H](CC(C)C)C(=O)N[C@@H](CCCCN)C(=O)N[C@H](C(=O)N[C@@H](CC(C)C)C(=O)N[C@H](C(=O)N[C@H](C(=O)NCC(=O)N[C@@H](CC(C)C)C(=O)N1CCC[C@H]1C(=O)N[C@@H](C)C(=O)N[C@@H](CC(C)C)C(=O)N[C@H](C(=O)N[C@@H](CO)C(=O)N[C@@H](Cc1c[nH]c2ccccc12)C(=O)N[C@H](C(=O)N[C@@H](CCCCN)C(=O)N[C@@H](CCCNC(=N)N)C(=O)N[C@@H](CCCCN)C(=O)N[C@@H](CCCNC(=N)N)C(=O)N[C@@H](CCC(N)=O)C(=O)N[C@@H](CCC(N)=O)C(N)=O)[C@@H](C)CC)[C@@H](C)CC)[C@@H](C)O)[C@@H](C)O)C(C)C)C(C)C [Melittin] | 4.2 ± 2.4 µM (≈ 12 µg/mL) | 3.8 ± 0.4 µM (≈ 10.8 µg/mL) | 6.1 ± 0.9 µM (≈ 17.4 µg/mL) | 4.4 ± 0.3 µM (≈ 12.5 µg/mL) | 4.0 µM |  |  |  |  |  |  |  | 
2 | GIGKFLHAAKKFAKAFVAEIMNS-NH2 [Ala-Magainin] |  |  |  |  |  | 24 : 1 | 9.6 ± 0.9 µM | 3.4±0.5^c μM | 0.4±0.1^c μM | 5.6 ± 1.4 µM | 14.0 : 1 | 7.1±0.7^c μM | 0.6±0.1^c μM
